What was measured:
[1] = test system: PDAC1 adherent 2D monolayers; assay: Viability curves on PDAC1 adherent 2D monolayers; format: cell-based; conditions: Homo sapiens, 30 h
Text: The PDAC patient-derived xenograft (PDX) Panc354 (referred to hereafter as PDAC3) was obtained from Dr. Manuel Hidalgo under a Material Transfer Agreement with the Spanish National Cancer Centre (CNIO), Madrid, Spain (Reference no. I409181220BSMH). PDAC1, PDAC2 and PDAC4 PDXs were established from primary patient resected tumors. Samples were provided by the BioBank Hospital Ramón y Cajal-IRYCIS (PT13/0010/0002), integrated in the Spanish National Biobanks Network and they were processed following standard operating procedures with the appropriate approval of the Ethical and Scientific Committees (Control no. No. Control: DE-BIOB-73 AC65, RG.BIOB-96 REV, and CI-BIOB-08-10-01 rev), with informed consent and according to Declaration of Helsinki principles. Primary patient tumors were subcutaneously implanted in immunocompromised female 6- to 8-week-old NU-Foxn1nu nude mice (Envigo, Barcelona, Spain) and subsequently passage in vivo to establish PDX PDAC1, PDAC2 and PDAC4. Primary PDX-derived in vitro cultures were established as previously detailed. […]
Murine embryonic stem cells (mESCs) were plated at 20,000 cells per well in gelatinized 96 well plates. […] Trypsinized cells were counted and 20,000 cells were plated in wells of standard tissue culture-treated plates (Corning) and treated the following day with indicated compounds and concentrations.

[2] = molecular target: T1, MST2 (Homo sapiens, UniProt Q13188); assay: KINOMEscan; format: binding; conditions: read-out: % Ctrl
T1 construct: purchased DiscoveRx KINOMEscan

[3] = molecular target: T2, JNK3 (Homo sapiens, UniProt P53779); assay: KINOMEscan; format: binding; conditions: read-out: % Ctrl
T2 construct: purchased DiscoveRx KINOMEscan

[4] = molecular target: T3, OSR1 (Homo sapiens, UniProt O95747); assay: KINOMEscan; format: binding; conditions: read-out: % Ctrl
T3 construct: purchased DiscoveRx KINOMEscan

[5] = molecular target: T4, RET(V804L) (Homo sapiens, UniProt P07949, V804L); assay: KINOMEscan; format: binding; conditions: read-out: % Ctrl
T4 construct: purchased DiscoveRx KINOMEscan

[6] = molecular target: T5, LYN (Homo sapiens, UniProt P07948); assay: KINOMEscan; format: binding; conditions: read-out: % Ctrl
T5 construct: purchased DiscoveRx KINOMEscan
T5 sequence (P07948 whole entry): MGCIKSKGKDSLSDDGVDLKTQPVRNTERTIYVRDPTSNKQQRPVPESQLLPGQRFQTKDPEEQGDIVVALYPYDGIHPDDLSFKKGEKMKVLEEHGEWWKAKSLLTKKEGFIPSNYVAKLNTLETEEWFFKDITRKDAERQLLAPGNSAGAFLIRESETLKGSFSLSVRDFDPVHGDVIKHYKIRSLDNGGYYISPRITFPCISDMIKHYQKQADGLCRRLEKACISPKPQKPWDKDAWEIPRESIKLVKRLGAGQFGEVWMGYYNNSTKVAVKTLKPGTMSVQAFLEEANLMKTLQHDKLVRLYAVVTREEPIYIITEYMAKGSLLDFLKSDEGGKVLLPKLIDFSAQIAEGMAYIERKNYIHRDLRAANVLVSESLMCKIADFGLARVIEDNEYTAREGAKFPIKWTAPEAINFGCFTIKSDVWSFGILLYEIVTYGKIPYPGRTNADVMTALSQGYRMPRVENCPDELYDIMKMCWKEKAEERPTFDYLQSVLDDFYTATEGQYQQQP

[7] = molecular target: T6, MAPKAPK2 (Homo sapiens, UniProt P49137); assay: KINOMEscan; format: binding; conditions: read-out: % Ctrl
T6 construct: purchased DiscoveRx KINOMEscan

[8] = molecular target: T7, TGFBR1 (Homo sapiens, UniProt P36897); assay: KINOMEscan; format: binding; conditions: read-out: % Ctrl
T7 construct: purchased DiscoveRx KINOMEscan
T7 sequence (P36897 34-503): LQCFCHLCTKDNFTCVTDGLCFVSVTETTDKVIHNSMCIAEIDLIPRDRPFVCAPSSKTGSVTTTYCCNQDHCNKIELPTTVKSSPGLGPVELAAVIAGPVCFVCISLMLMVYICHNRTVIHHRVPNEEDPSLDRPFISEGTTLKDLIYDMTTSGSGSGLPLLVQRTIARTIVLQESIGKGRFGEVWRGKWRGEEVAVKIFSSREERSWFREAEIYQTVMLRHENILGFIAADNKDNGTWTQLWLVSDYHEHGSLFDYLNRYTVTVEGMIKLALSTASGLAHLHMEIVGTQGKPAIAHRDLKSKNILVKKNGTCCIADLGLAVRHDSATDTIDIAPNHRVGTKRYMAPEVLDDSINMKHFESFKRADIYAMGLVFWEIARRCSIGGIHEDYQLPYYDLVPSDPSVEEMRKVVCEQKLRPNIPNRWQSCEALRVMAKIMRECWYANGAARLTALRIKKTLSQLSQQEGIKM

[9] = molecular target: T8, BLK (Homo sapiens, UniProt P51451); assay: KINOMEscan; format: binding; conditions: read-out: % Ctrl
T8 construct: purchased DiscoveRx KINOMEscan

[10] = molecular target: T9, AKT3 (Homo sapiens, UniProt Q9Y243); assay: KINOMEscan; format: binding; conditions: read-out: % Ctrl
T9 construct: purchased DiscoveRx KINOMEscan

[11] = molecular target: T10, PIK3C2B (Homo sapiens, UniProt O00750); assay: KINOMEscan; format: binding; conditions: read-out: % Ctrl
T10 construct: purchased DiscoveRx KINOMEscan
T10 sequence (O00750 whole entry): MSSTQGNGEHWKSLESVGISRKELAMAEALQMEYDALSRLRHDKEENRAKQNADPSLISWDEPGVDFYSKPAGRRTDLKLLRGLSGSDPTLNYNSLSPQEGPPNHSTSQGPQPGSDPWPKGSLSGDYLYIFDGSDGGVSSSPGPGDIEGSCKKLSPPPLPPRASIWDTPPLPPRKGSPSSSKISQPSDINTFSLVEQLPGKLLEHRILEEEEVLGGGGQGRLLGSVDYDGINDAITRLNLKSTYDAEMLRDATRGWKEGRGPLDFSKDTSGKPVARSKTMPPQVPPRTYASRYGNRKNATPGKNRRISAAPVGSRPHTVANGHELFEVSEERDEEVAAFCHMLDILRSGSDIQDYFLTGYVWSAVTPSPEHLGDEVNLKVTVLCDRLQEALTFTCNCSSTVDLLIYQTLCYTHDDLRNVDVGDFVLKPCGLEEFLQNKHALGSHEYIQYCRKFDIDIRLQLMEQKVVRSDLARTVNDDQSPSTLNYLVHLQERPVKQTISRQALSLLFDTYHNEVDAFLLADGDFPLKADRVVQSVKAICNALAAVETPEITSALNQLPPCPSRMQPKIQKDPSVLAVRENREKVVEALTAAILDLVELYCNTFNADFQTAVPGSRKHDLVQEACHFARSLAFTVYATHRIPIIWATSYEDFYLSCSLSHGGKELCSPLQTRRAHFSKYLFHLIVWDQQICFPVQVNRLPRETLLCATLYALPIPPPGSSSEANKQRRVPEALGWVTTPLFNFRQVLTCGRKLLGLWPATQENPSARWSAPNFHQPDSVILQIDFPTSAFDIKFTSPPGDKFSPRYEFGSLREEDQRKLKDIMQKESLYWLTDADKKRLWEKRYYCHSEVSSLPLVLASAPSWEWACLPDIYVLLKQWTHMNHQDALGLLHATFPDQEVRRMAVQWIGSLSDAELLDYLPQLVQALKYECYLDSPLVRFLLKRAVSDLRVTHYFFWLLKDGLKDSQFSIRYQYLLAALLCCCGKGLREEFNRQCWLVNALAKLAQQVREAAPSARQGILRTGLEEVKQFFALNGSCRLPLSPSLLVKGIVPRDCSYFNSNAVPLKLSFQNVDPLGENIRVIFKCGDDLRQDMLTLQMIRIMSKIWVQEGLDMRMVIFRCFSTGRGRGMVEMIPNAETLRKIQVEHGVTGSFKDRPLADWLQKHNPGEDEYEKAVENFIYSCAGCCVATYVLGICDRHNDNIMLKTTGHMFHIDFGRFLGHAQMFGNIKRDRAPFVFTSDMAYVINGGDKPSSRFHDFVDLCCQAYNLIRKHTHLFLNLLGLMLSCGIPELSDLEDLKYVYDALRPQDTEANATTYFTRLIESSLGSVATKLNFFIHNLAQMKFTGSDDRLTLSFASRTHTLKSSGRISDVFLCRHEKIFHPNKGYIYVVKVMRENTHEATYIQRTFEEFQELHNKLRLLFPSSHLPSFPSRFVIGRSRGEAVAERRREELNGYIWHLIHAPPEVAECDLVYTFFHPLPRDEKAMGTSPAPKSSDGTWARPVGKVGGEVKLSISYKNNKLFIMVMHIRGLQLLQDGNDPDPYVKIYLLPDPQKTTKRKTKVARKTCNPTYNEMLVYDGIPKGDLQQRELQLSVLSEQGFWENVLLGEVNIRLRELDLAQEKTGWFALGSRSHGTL

[12] = molecular target: T11, EPHB1 (Homo sapiens, UniProt P54762); assay: KINOMEscan; format: binding; conditions: read-out: % Ctrl
T11 construct: purchased DiscoveRx KINOMEscan

[13] = molecular target: T12, MRCKB (Homo sapiens, UniProt Q9Y5S2); assay: KINOMEscan; format: binding; conditions: read-out: % Ctrl
T12 construct: purchased DiscoveRx KINOMEscan

[14] = molecular target: T13, RPS6KA5(KD1-N-t.) (Homo sapiens, UniProt O75582); assay: KINOMEscan; format: binding; conditions: read-out: % Ctrl
T13 construct: RPS6KA5(KD1-N-t.); purchased DiscoveRx KINOMEscan

[15] = molecular target: T14, LOK (Homo sapiens, UniProt O94804); assay: KINOMEscan; format: binding; conditions: read-out: % Ctrl
T14 construct: purchased DiscoveRx KINOMEscan
T14 sequence (O94804 whole entry): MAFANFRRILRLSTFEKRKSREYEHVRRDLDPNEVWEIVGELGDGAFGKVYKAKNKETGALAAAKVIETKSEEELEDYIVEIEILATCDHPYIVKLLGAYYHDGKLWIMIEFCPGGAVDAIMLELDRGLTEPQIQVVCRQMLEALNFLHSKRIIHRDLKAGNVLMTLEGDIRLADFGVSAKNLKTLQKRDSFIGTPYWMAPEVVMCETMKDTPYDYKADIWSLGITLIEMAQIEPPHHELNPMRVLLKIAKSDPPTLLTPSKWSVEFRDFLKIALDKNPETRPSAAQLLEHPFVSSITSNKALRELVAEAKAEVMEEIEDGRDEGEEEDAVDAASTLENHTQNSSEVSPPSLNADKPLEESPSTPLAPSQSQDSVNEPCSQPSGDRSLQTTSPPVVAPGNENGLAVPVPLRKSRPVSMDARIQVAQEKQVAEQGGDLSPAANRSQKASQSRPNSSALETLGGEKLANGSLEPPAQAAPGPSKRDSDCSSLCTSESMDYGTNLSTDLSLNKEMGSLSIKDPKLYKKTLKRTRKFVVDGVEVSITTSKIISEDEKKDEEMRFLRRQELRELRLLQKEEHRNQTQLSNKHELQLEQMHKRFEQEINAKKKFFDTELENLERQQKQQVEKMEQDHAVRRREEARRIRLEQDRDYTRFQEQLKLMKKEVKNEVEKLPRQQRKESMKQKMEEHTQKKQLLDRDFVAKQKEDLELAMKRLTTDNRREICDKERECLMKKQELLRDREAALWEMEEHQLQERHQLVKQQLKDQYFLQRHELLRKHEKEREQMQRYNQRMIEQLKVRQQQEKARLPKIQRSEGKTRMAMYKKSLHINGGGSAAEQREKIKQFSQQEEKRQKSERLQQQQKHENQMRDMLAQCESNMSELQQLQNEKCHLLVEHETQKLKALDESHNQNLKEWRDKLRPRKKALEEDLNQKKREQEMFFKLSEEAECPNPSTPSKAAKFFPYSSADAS

[16] = molecular target: T15, DLK (Homo sapiens, UniProt Q12852); assay: KINOMEscan; format: binding; conditions: read-out: % Ctrl
T15 construct: purchased DiscoveRx KINOMEscan

[17] = molecular target: T16, NEK4 (Homo sapiens, UniProt P51957); assay: KINOMEscan; format: binding; conditions: read-out: % Ctrl
T16 construct: purchased DiscoveRx KINOMEscan

[18] = molecular target: T17, IRAK3 (Homo sapiens, UniProt Q9Y616); assay: KINOMEscan; format: binding; conditions: read-out: % Ctrl
T17 construct: purchased DiscoveRx KINOMEscan
T17 sequence (Q9Y616 whole entry): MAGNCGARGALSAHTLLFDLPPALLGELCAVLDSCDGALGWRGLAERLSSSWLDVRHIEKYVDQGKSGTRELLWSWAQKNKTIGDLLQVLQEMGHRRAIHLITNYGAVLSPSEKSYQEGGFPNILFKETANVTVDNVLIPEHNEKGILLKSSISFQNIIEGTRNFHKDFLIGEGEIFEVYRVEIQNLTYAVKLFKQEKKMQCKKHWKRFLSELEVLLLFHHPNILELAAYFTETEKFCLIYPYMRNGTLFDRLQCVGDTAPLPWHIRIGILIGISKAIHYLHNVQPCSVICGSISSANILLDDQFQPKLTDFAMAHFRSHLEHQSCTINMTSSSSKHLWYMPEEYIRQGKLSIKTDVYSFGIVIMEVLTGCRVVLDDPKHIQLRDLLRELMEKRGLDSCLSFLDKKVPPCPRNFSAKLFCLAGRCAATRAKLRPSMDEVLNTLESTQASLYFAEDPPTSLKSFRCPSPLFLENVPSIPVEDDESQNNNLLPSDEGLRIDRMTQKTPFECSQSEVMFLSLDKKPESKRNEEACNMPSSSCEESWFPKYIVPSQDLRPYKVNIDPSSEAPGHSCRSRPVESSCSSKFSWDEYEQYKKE

[19] = molecular target: T18, DAPK2 (Homo sapiens, UniProt Q9UIK4); assay: KINOMEscan; format: binding; conditions: read-out: % Ctrl
T18 construct: purchased DiscoveRx KINOMEscan

[20] = molecular target: T19, TLK2 (Homo sapiens, UniProt Q86UE8); assay: KINOMEscan; format: binding; conditions: read-out: % Ctrl
T19 construct: purchased DiscoveRx KINOMEscan

[21] = molecular target: T20, CAMK2G (Homo sapiens, UniProt Q13555); assay: KINOMEscan; format: binding; conditions: read-out: % Ctrl
T20 construct: purchased DiscoveRx KINOMEscan

[22] = molecular target: T21, MEK5 (Homo sapiens, UniProt Q13163); assay: KINOMEscan; format: binding; conditions: read-out: % Ctrl
T21 construct: purchased DiscoveRx KINOMEscan

[23] = molecular target: T22, FLT3(D835H) (Homo sapiens, UniProt P36888, D835H); assay: KINOMEscan; format: binding; conditions: read-out: % Ctrl
T22 construct: purchased DiscoveRx KINOMEscan

[24] = molecular target: T23, TNK1 (Homo sapiens, UniProt Q13470); assay: KINOMEscan; format: binding; conditions: read-out: % Ctrl
T23 construct: purchased DiscoveRx KINOMEscan

[25] = molecular target: T24, QSK (Homo sapiens, UniProt Q9Y2K2); assay: KINOMEscan; format: binding; conditions: read-out: % Ctrl
T24 construct: purchased DiscoveRx KINOMEscan

[26] = molecular target: T25, BMX (Homo sapiens, UniProt P51813); assay: KINOMEscan; format: binding; conditions: read-out: % Ctrl
T25 construct: purchased DiscoveRx KINOMEscan
T25 sequence (P51813 whole entry): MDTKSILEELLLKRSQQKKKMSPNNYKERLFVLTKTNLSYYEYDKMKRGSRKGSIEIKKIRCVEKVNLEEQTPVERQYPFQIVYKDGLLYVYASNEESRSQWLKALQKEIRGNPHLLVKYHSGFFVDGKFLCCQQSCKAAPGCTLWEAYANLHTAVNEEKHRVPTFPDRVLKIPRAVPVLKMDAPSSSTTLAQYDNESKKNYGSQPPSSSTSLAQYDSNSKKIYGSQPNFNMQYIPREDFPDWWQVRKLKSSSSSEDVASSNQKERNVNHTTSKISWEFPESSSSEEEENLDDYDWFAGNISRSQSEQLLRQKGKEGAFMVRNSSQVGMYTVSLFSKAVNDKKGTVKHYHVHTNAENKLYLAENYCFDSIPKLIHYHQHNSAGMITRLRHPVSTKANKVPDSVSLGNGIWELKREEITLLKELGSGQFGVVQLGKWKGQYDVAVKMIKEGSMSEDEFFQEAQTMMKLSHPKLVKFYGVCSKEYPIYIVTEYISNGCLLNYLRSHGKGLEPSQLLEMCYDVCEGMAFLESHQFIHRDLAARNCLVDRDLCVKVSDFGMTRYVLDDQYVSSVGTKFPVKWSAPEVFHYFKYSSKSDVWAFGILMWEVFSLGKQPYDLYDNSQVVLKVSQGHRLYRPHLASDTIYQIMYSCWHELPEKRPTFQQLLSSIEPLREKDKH

`COc1nc2ccc(NCC3CCN(C)CC3)nn2c1C(=O)Nc1cccc(OC(F)(F)F)c1` [Cpd 1] showed an EC50 [1] of roughly 3.56 µM.

With `CN1CCC(CNc2ccc3ncc(C(=O)Nc4cccc(OC(F)(F)F)c4)n3n2)CC1` [Cpd 2] the remaining binding at 1 µM [2] was 100%, the remaining binding at 1 µM [3] was 100% and the remaining binding at 1 µM [4] was 100%. The remaining binding at 1 µM [5] was 100%, the remaining binding at 1 µM [6] was 98% and the remaining binding at 1 µM [7] was 94%. The remaining binding at 1 µM [8] was 100%, the remaining binding at 1 µM [9] was 100% and the remaining binding at 1 µM [10] was 100%. The remaining binding at 1 µM [11] was 48%, the remaining binding at 1 µM [12] was 97% and the remaining binding at 1 µM [13] was 100%. It also gave a remaining binding at 1 µM [14] of 100%, a remaining binding at 1 µM [15] of 90% and a remaining binding at 1 µM [16] of 100%. The remaining binding at 1 µM [17] was 100%, the remaining binding at 1 µM [18] was 100% and the remaining binding at 1 µM [19] was 89%. For the same molecule, the remaining binding at 1 µM [20] was 100%, the remaining binding at 1 µM [21] was 100% and the remaining binding at 1 µM [22] was 73%. For the same molecule, the remaining binding at 1 µM [23] was 74%, the remaining binding at 1 µM [24] was 56% and the remaining binding at 1 µM [25] was 100%. The remaining binding at 1 µM [26] was 100%.

From PMC7407272, “Induction of Lysosome Membrane Permeabilization as a Therapeutic Strategy to Target Pancreatic Cancer Stem Cells” (Cancers, 2020)
